According to patent US20200385396A1, “Compond for treatment or prevention of obesity or diseases related to obesity, and application thereof” (SHANGHAI INSTITUTES FOR BIOLOGICAL SCIENCES, CHINESE …, priority 2017, published 2020):

Columns and labels:
[1] = test system: mice; assay: Inhibition of food intake in mice by HLY72/HLY78 derivatives; format: in vivo, mouse; settings: for inhibition of food intake in mice / activity compared with HLY72: intraperitoneal, 75 umol/kg; for activity compared with HLY72 / activity relative to Hly72 / effective concentration (EC50) relative to HLY72: food intake; for activity relative to Hly72 / effective concentration (EC50) relative to HLY72: compounds 7.5 umol/kg vs Hly72 75 umol/kg; for effective concentration (EC50) relative to HLY72: 5-6 mice per group
Description: All compounds are injected intraperitoneally with a concentration of 75 umol/kg (20 mg/kg of Hly72 equals 75 umol/kg). One-way ANOVA statistical analysis, *: P<0.05, **: P⋅<0.01, ***: P<0.001.
All compounds are injected intraperitoneally at a concentration of 75 umol/kg (20 mg/kg of Hly72 equals 75 umol/kg). One-way ANOVA statistics Analysis, *: P<0.05, **: P⋅<0.01, ***: P<0.001.
Intraperitoneal injection of Hly72 at a concentration of 75 umol/kg (20 mg/kg of Hly72 equals 75 umol/kg), Hgsy-98, Hybj-12a, Hybj-13a are all 7.5 umol/kg. One-way ANOVA statistical analysis, *: P<0.05, **: P⋅<0.01, ***: P<0.001.
The next question we are very concerned about is whether HLY78 has similar functions to NUCB2 protein in mice. Up to now, the most classic function reported for NUCB2 protein is to reduce the food intake of mice at night. Therefore, the experiment was designed: 20 mg/kg of HLY78 was injected intraperitoneally within two hours before turning off the lights at night, and then the food intake of the mice was measured at different time points (0-3 h, 0-6 h, 0-12 h, 0-24 h). […] During the three days of the adaptive injection period before HLY78 injection, both groups of mice were injected with DMSO. On the day of injection of HLY78 and the two days before the injection of DMSO, the body weight of the two groups of mice is also the same (FIG. 2b). […]
Experimental methods were the same as in Examples 2 and 4.
Three compounds of Hgsy-98, Hybj-12a and Hybj-13a were selected for re-experiment (5-6 mice per group).

[2] = Solubility (Table C); format: physicochemical; settings: solvent named in Table C

With C=Cc1cccc2c1N(C)Cc1cc(OCC)c(OCC)cc1-2 [Hybj-2a] the “inhibition of food intake in mice” value [1] was “obvious effects”.

In the case of C=Cc1cccc2c1N(C)Cc1cc(OCCCC)c(OCCCC)cc1-2 [Hybj-3a], the “inhibition of food intake in mice” value [1] is reported as “obvious effects”.

In the case of CCn1c(=O)c2cc(OC)c(OC)cc2c2cccc(C=O)c21 [Hgsy-51], the Solubility [2] is reported as “DMSO”.

With CCN1Cc2cc(OC)c(OC)cc2-c2cccc(CO)c21 [Hgsy-48] the Solubility [2] was “DMSO”.

With COc1cc2c(=O)n(C)c3c(C(C)=O)cccc3c2cc1OC [Hgsy-57] the Solubility [2] was “DMSO”.

For C/C=C/c1cccc2c1N(C)Cc1cc(OC)ccc1-2 [Hgsy-92-1], the “inhibition of food intake in mice” value [1] was “obvious effects” and the Solubility [2] was “DMSO”.

With COc1cc2c(cc1OC)-c1cccc(OC)c1N(C)C2 [Hgsy-60] the Solubility [2] was “DMSO”.

In the case of CCn1c(=O)c2cc(OC)ccc2c2cccc(OC)c21 [Hgsy-32], the Solubility [2] is reported as “DMSO”.

In the case of C=CC(O)c1cccc2c3cc(OC)c(OC)cc3c(=O)n(CC)c12 (centres unmarked) [Hgsy-25], the Solubility [2] is reported as “DMSO”.

For Cc1cccc2c1N(C)Cc1cc(O)ccc1-2 [Hcj16], the “inhibition of food intake in mice” value [1] was “obvious effects” and the Solubility [2] was “DMSO”.

In the case of COc1cc2c(=O)n(C)c3c(OC)cccc3c2cc1OC [Hgsy-35], the “inhibition of food intake in mice” value [1] is reported as “obvious effects” and the Solubility [2] is reported as “DMSO”.

With COc1ccc2c(c1)CN(C)c1c(C)cccc1-2 [Hcj15] the Solubility [2] was “DMSO”.

For COc1cc2c(cc1OC)-c1cccc(C(C)O)c1N(C)C2 (centres unmarked) [Hgsy-59], the Solubility [2] was “DMSO”.

For C/C=C/c1cccc2c3cc(OC)c(OC)cc3c(=O)n(CCCC)c12 [Hgsy-80], the “activity compared with HLY72” value [1] was “significantly better”, the “inhibition of food intake in mice” value [1] was “obvious effects” and the Solubility [2] was “DMSO”.

With CCCn1c(=O)c2cc(OC)ccc2c2cccc(C(C)O)c21 (centres unmarked) [Hgsy-64] the Solubility [2] was “DMSO”.

For C/C=C/c1cccc2c1N(CCCC)Cc1cc(OC)c(OC)cc1-2 [Hgsy-86], the “inhibition of food intake in mice” value [1] was “obvious effects” and the Solubility [2] was “DMSO”.

With C=Cc1cccc2c1N(C)Cc1cc(OC)c(OC)cc1-2 [Hybj-1a] the “inhibition of food intake in mice” value [1] was “obvious effects” and the Solubility [2] was “DMSO”.

In the case of C#CCOc1cc2c(cc1OCC#C)-c1cccc(C)c1N(CC)C2 [Hcj46-d], the Solubility [2] is reported as “DMSO”.

With CCCCN1Cc2cc(OC)c(OC)cc2-c2cccc(CO)c21 [Hgsy-44] the Solubility [2] was “DMSO”.

With CCCCN1Cc2cc(OC)c(OC)cc2-c2cccc(C(C)O)c21 (centres unmarked) [Hgsy-55] the Solubility [2] was “DMSO”.

In the case of C=Cc1cccc2c3ccc(OC)cc3c(=O)n(CC)c12 [Hgsy-67], the Solubility [2] is reported as “DMSO”.

For CCN1Cc2cc(OC)c(OC)cc2-c2cccc(COC(C)=O)c21 [Hgsy-47], the Solubility [2] was “DMSO”.

For CCn1c(=O)c2cc(OC)ccc2c2cccc(CO)c21 [Hgsy-31], the Solubility [2] was “DMSO”.

With CCn1c(=O)c2cc(OC)ccc2c2cccc(C(C)O)c21 (centres unmarked) [Hgsy-62] the Solubility [2] was “DMSO”.

For CCCCn1c(=O)c2cc(OC)c(OC)cc2c2cccc(C=O)c21 [Hgsy-50], the “activity compared with HLY72” value [1] was “significantly better”, the “inhibition of food intake in mice” value [1] was “obvious effects” and the Solubility [2] was “DMSO”.

With C=Cc1cccc2c1N(CCCCCCCCCCCC)Cc1cc3c(cc1-2)OCO3 [Hybj-13a] the “activity compared with HLY72” value [1] was “significantly better”, the “activity relative to Hly72” value [1] was “about 10 times” and the “effective concentration (EC50) relative to HLY72” value [1] was “one tenth”. The “inhibition of food intake in mice” value [1] was “obvious effects” and the Solubility [2] was “DMSO”.

In the case of C=Cc1cccc2c1N(CCCCCCCCCC)Cc1cc3c(cc1-2)OCO3 [Hyj-12a], the “activity compared with HLY72” value [1] is reported as “significantly better”, the “activity relative to Hly72” value [1] is reported as 30-40 times and the “effective concentration (EC50) relative to HLY72” value [1] is reported as “one tenth”. For the same compound, the “inhibition of food intake in mice” value [1] was “obvious effects” and the Solubility [2] was “DMSO”.

In the case of CCc1cccc2c1N(C)Cc1cc(OC)ccc1-2 [Hcj12], the “inhibition of food intake in mice” value [1] is reported as “obvious effects” and the Solubility [2] is reported as “DMSO”.

In the case of CCn1c(=O)c2cc(OC)c(OC)cc2c2cccc(C3OCCO3)c21 [Hgsy-69], the Solubility [2] is reported as “DMSO”.

In the case of C/C=C/c1cccc2c3cc(OC)c(OC)cc3c(=O)n(C)c12 [Hgsy-75], the Solubility [2] is reported as “DMSO”.

For CCn1c(=O)c2cc(OC)c(OC)cc2c2cccc(CO)c21 [Hgsy-36], the “inhibition of food intake in mice” value [1] was “obvious effects” and the Solubility [2] was “DMSO”.

With C=CC(O)c1cccc2c3ccc(OC)cc3c(=O)n(CC)c12 (centres unmarked) [Hgsy-3] the Solubility [2] was “DMSO”.

With CCCCn1c(=O)c2cc(OC)c(OC)cc2c2cccc(CO)c21 [Hgsy-43] the Solubility [2] was “DMSO”.

With C#CCOc1ccc2c(c1)CN(C)c1c(C)cccc1-2 [Hcj16d-a] the Solubility [2] was “DMSO”.

In the case of CCN1Cc2cc(O)ccc2-c2cccc(C)c21 [Hcj36], the Solubility [2] is reported as “DMSO”.

With C=Cc1cccc2c1N(CCCCCCCCCCCCCCCCCC)Cc1cc3c(cc1-2)OCO3 [Hyb-17a] the “activity compared with HLY72” value [1] was “significantly better”, the “inhibition of food intake in mice” value [1] was “obvious effects” and the Solubility [2] was “DMSO”.

For COc1cc2c(=O)n(C)c3c(C(C)O)cccc3c2cc1OC (centres unmarked) [Hgsy-56], the Solubility [2] was “DMSO”.

With CCCCn1c(=O)c2cc(OC)c(OC)cc2c2cccc(C(C)O)c21 (centres unmarked) [Hgsy-53] the Solubility [2] was “DMSO”.

For C=Cc1cccc2c3cc(OC)c(OC)cc3c(=O)n(C)c12 [Hgsy-58], the Solubility [2] was “DMSO”.

For C/C=C/c1cccc2c1N(CCCC)Cc1cc(OC)ccc1-2 [Hgsy-98], the “activity compared with HLY72” value [1] was “significantly better”, the “activity relative to Hly72” value [1] was “about 10 times” and the “effective concentration (EC50) relative to HLY72” value [1] was “one tenth”. The Solubility [2] was “DMSO”.

In the case of C=Cc1cccc2c3ccc(OC)cc3c(=O)n(CCC)c12 [Hgsy-68], the Solubility [2] is reported as “DMSO”.

With CCCN1Cc2cc(OC)ccc2-c2cccc(C(C)O)c21 (centres unmarked) [Hgsy-66] the Solubility [2] was “DMSO”.

In the case of C/C=C/c1cccc2c3ccc(OC)cc3c(=O)n(C)c12 [Hgsy-89], the Solubility [2] is reported as “DMSO”.

For C/C=C/c1cccc2c3ccc(OC)cc3c(=O)n(CCCC)c12 [Hgsy-97], the Solubility [2] was “DMSO”.

In the case of C=Cc1cccc2c1N(CCCCCC)Cc1cc3c(cc1-2)OCO3 [Hybj-9a], the “inhibition of food intake in mice” value [1] is reported as “obvious effects” and the Solubility [2] is reported as “DMSO”.

With Cc1cccc2c1N(C)Cc1cc(OCc3cc(C)n(C)n3)ccc1-2 [Hcj221d] the Solubility [2] was “DMSO”.

With CCN1Cc2cc(O)c(OC)cc2-c2cccc(C)c21 [Hcj44-d] the Solubility [2] was “DMSO”.

For COc1cc2c(cc1OC)-c1cccc(C)c1NC2 [Hcj92-a], the Solubility [2] was “DMSO”.

In the case of Cc1cccc2c1N(C)Cc1cc(OCc3cc4cc(Cl)ccc4s3)ccc1-2 [Hcj194-d], the “inhibition of food intake in mice” value [1] is reported as “obvious effects” and the Solubility [2] is reported as “DMSO”.

With C/C=C/c1cccc2c1N(C)Cc1cc(OC)c(OC)cc1-2 [Hgsy-78] the “inhibition of food intake in mice” value [1] was “obvious effects” and the Solubility [2] was “DMSO”.
